The values below come from patent publication US20080280878A1, “Methods and Compositions for Treating Chronic Lymphocytic Leukemia” (priority 2004, published 2008).

In data set [1] the test system is ZAP70 in CLL B cells (CD3−, ZAP70+). Briefly: Two-color flow cytometry of ZAP70 expression in white blood cells of a ZAP70+ CLL patient: CLL B cells. Format: cell-based, human. To be noted: 300 nM, 24 hours at 37° C., untreated 85%. The protocol: (§1) The upper right quadrant were normal T-cells (CD3+, ZAP70+) the lower right quadrant were (CD3−, ZAP70+); the upper left quadrant is CD3+, ZAP70−; and the lower left quadrant is CD3−, ZAP70−.
(§2) (right panel). Levels of ZAP70 protein expression were measured by two color indirect immunofluorescence with specific anti-CD3 antibodies conjugated to phycoerytirin and anti-ZAP70 antibodies conjugated to Alexa-488 dye and analyzed by flow cytometry. CD3 is a specific marker of T cells. […] As shown in the untreated cells (left panel), approximately 5% of the cells were normal T-cells (CD3+, ZAP70+, upper right quadrant) and ˜85% of the cells were ZAP70+ CLL B cells (CD3−, ZAP70+, lower right quadrant). […] This is important because B-CLL patients are chronically immunosuppressed by their disease, so avoidance of effects on normal T-cell function performed by ZAP70 is clearly beneficial.
(§3) The samples were than prepared for flow cytometry analysis by a method described in Rassebti et al. supra. […] Levels of ZAP70 protein expression were measured by flow cytometry (FACSCalibur, BD Biosciences) and Flow-Jo software, version 2.7.4 (Tree Star).

For data set [2] the following is noted: cited from earlier work.
For data set [3], the system named is ZAP70 in normal T-cells (CD3+, ZAP70+). Put plainly: Two-color flow cytometry of ZAP70 expression in white blood cells of a ZAP70+ CLL patient: normal T-cells. Format: cell-based, human. To be noted: 300 nM, 24 hours at 37° C., untreated 4.5%. The protocol: as §1, §2, §3
On the technique in general: Flow cytometry measures light scatter and fluorescence of single cells or particles in a stream.

The next data set has as its system ZAP70− CLL B cells. Briefly: Viability (100%-% apoptotic cells) by DiOC6 and propidium iodide staining. To be noted: Homo sapiens, B-cell, 48 h, read-out: average % viability.
For data set [4], the system named is ZAP70 in ZAP70+ CLL B cells. Put plainly: ZAP70 protein expression by indirect immunofluorescence and FACS analysis. Format: cell-based, human. To be noted: ZAP70+ CLL B cells of one patient, 24 hours at 37° C.
Experimental: Levels of ZAP70 protein expression were measured by indirect immunofluorescence of permeabilized cells with specific anti-ZAP70 antibodies and FACS analysis.
Data set [5] in a line: Solvent stability of low melt form: slurrying in H2O:EtOH (90:10). Format: physicochemical. To be noted: slurry in H2O:EtOH (90:10). How it is done: 17-AAG may be prepared from geldanamycin by reacting with allyamine in dry THF under a nitrogen atmosphere. The crude product may be purified by slurrying in H2O:EtOH (90:10), and the washed crystals obtained have a melting point of 206-212° C. by capillary melting point technique. […] The two 17-AAG products are designated as the low melt form and high melt form.
MP=147-175° C. ^1H NMR and HPLC are consistent with the desired product.

pIC50: −log10 of the molar value. Several values for one entry are separate records, joined by “and”; a condition that tells them apart may be missing. Equal entries are not always repeated.

In general, clearance refers to the volume of plasma or blood freed of the substance per unit of time. Broadly, the Cmax is the highest concentration seen after dosing. One may read the viability as a per cent measure of how many cells are alive, often set against a control. On to `C=CCNC1=C2CC(C)CC(OC)C(O)C(C)/C=C(\C)C(OC(N)=O)C(OC)/C=C\C=C(/C)C(=O)NC(=CC1=O)C2=O` (stereo not drawn) [Compound 17-AAG, 17-allylamino-17-demethoxygeldanamycin], for which the “% positive cells (ZAP70) after treatment” value in data set [1] turned out to be 34%; in data set [3], 4.2%. Further, the “maximum tolerated dose (MTD)” value in data set [2] (daily 1-hour infusion for 5 days every three weeks) is 40 mg/m^2. In addition, in data set [2] (human, in vivo), the clearance was 41.0 ± 13.5 L/h. For the same compound, the terminal half-life in data set [2] (human, in vivo) is 2.5 ± 0.5 h. The Cmax in data set [2] (read-out: Plasma Cmax, human, in vivo) was 1860 nM and 3170 nM. Besides, the viability at 0.1 µM in the data set on ZAP70− CLL B cells was determined as 93%. Also, the “degradation of ZAP70” value in data set [4] is recorded as “dose-dependently induced degradation of ZAP70”. Also, the average % viability with ZAP70+ CLL B cells (0.1 µM) was 45.74+/−3.177%. For the same compound, the “time to reach 50% cell mortality” value with ZAP70+ CLL B cells (100 nM, 37° C., cells of one ZAP70+ patient) was “approximately 48 hours”. Besides, the pIC50 with ZAP70+ CLL B cells (read-out: 50% inhibitory concentration (IC50), cell killing, 48 hours at 37° C., cells of one ZAP70+ patient) is roughly 7.10.
Consider `C=CCNC1=C2C[C@@H](C)C[C@H](OC)[C@H](O)[C@@H](C)/C=C(\C)[C@H](OC(N)=O)[C@@H](OC)/C=C\C=C(/C)C(=O)NC(=CC1=O)C2=O` [low melt form, 17-allylamino-17-demethoxygeldanamycin], for which the “stability of the low melt form (conversion to high melt form)” value in data set [5] is “no conversion to the high melt form was observed”.
